The values below come from ChEMBL document CHEMBL1138742, “Potent and orally bioavailable non-peptide antagonists at the human bradykinin B(1) receptor based on a 2-alkylamino-5-sulfamoylbenzamide core” (J Med Chem, 2004).

In one assay the target is T1, B2 bradykinin receptor (Homo sapiens, UniProt P30411).
T1 sequence (P30411 whole entry): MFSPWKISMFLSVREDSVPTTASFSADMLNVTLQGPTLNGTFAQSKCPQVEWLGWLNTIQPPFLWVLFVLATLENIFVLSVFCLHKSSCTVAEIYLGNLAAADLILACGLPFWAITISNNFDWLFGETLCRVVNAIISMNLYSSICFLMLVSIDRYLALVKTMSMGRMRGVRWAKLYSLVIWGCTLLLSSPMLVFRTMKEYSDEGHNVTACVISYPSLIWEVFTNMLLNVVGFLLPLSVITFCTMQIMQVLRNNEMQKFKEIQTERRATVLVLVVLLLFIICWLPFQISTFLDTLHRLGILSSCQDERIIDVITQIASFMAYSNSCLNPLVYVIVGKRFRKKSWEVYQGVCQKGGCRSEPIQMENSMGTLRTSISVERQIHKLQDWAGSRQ
The experiment in a line: Binding affinity for Bradykinin receptor B2 expressed in COS7 cells. In kind it is cell-based, COS-7.
With `CN(C)CCCN(CCCN(C)C)S(=O)(=O)c1ccc(NC(c2ccccc2)c2ccccc2)c([N+](=O)[O-])c1`, the Ki (usually the dissociation constant of the complex between target and ligand, obtained from inhibition or displacement) turned out to be 1400 nM.

The next assay deals with T2, B1 bradykinin receptor (Homo sapiens, UniProt P46663).
T2 sequence (P46663 whole entry): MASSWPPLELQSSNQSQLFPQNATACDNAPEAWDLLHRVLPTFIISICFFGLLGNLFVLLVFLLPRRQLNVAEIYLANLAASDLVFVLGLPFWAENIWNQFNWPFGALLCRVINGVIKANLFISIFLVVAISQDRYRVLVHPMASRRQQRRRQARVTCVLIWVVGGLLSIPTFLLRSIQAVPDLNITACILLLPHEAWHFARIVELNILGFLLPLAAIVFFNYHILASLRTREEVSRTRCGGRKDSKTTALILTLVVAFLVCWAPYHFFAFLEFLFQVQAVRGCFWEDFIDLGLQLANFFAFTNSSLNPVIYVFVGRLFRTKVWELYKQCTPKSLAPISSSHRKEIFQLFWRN
As to the kind of experiment: Binding affinity for Bradykinin receptor B1 expressed in HEK293 cells. In kind it is cell-based.
For `CN(C)CCCN(CCCN(C)C)C(=O)CCNS(=O)(=O)c1ccc(NCC(c2ccccc2)c2ccccc2)c(Cl)c1`, the Ki was over 1000 nM.
`CN(C)CCCN(CCCN(C)C)C(=O)CCNS(=O)(=O)c1ccc(NCC(c2ccccc2)c2ccccc2)c([N+](=O)[O-])c1` displayed an inhibition constant (Ki) of 140 nM.
In the case of `CN(C)CCCN(CCCN(C)C)S(=O)(=O)c1ccc(NCC(c2ccccc2)c2ccccc2)c([N+](=O)[O-])c1`, the affinity, expressed as Ki, was 230 nM.
The molecule `CC(C)N1CCN(C(=O)C2CCN(S(=O)(=O)c3ccc(NCC(c4ccccc4)c4ccccc4)c(C(=O)N4CCOCC4)c3)CC2)CC1` displayed a Ki of 10 nM.
Still for that read-out and setting: under `CN(C)CCCN(CCCN(C)C)C(=O)C1CCN(S(=O)(=O)c2ccc(NCC(c3ccccc3)c3ccccc3)c(C(=O)N3CCOCC3)c2)CC1` stands 1 nM.
Same read-out and setting: the figure for `CN(C)CCCN(CCCN(C)C)S(=O)(=O)c1ccc(NC(c2ccccc2)c2ccccc2)c([N+](=O)[O-])c1` is 3000 nM; for `CN(C)CCCN(CCCN(C)C)C(=O)CCNS(=O)(=O)c1ccc(NCC(c2ccccc2)c2ccccc2)c(C(=O)N2CCOCC2)c1` it is 10 nM.
Same read-out and setting: the figure for `CN1CCN(C(=O)C2CCN(S(=O)(=O)c3ccc(NCC(c4ccccc4)c4ccccc4)c(C(=O)N4CCOCC4)c3)CC2)CC1` is 10 nM.
`CC(=O)c1cc(S(=O)(=O)NCCC(=O)N(CCCN(C)C)CCCN(C)C)ccc1NCC(c1ccccc1)c1ccccc1` came in with a Ki of 130 nM.
Still for that read-out and setting: under `CN(C)CCCN(CCCN(C)C)C(=O)C1CCN(S(=O)(=O)c2ccc(NCC(c3ccccc3)c3ccccc3)c([N+](=O)[O-])c2)CC1` stands 10 nM; under `CN(C)CCCN(CCCN(C)C)S(=O)(=O)c1ccc(NC(Cc2ccccc2)Cc2ccccc2)c([N+](=O)[O-])c1`, 250 nM.

The next assay has as its target T2, B1 bradykinin receptor. As to the kind of experiment: Inhibition of Bradykinin receptor B1 expressed in HEK293 cells. In kind it is cell-based.
In the case of `CN(C)CCCN(CCCN(C)C)S(=O)(=O)c1ccc(NC(c2ccccc2)c2ccccc2)c([N+](=O)[O-])c1`, the IC50 (as a rule, the point on the concentration scale where inhibition reaches its midpoint) is 6.2 µM.
